Assay results: patent US9504691B2, “Finafloxacin suspension compositions” (ALCON RESEARCH, LTD., priority 2012, dated 2016)
In brackets after ≈: the same amount, converted by molar mass.

What was measured:
[1] = tested on: Ciprofloxacin-Susceptible S. aureus; assay: In vitro antimicrobial susceptibility (MIC), Ciprofloxacin-Susceptible S. aureus; assay type: cell-based; conditions: 8 isolates; for MIC Range: in µg/mL (unit assumed)
Protocol: (§1) A finafloxacin solution composition at pH 5.8 and 7.3 was compared to ciprofloxacin and ofloxacin compositions using standard in vitro antimicrobial susceptibility tests (M07-08 Methods for Dilution Antimicrobial Susceptibility Tests for Bacteria that Grow Aerobically; Approved Standard-Eighth Edition (January 2009, Clinical and Laboratory Standards Institute), herein incorporated by reference). Minimum inhibitory concentrations (MIC50) were determined using organisms commonly found in otic and ophthalmic infections. The MIC50 was the lowest concentration of antibiotic that prevented growth of the test organism, as determined visually by a lack of turbidity.
(§2) The results of the experiment are presented below in TABLES 1-5. At acidic pH, finafloxacin generally had greater activity against both Gram-positive and Gram-negative organisms than the fluoroquinolones ciprofloxacin and ofloxacin, both of which are used for the treatment of otic infections. Higher activity under acidic conditions is important for an otic formulation since a low pH formulation is preferred to slow bacterial and fungal growth, as well as the fact the pH environment of the external ear canal is ˜pH 6.

[2] = tested on: Ciprofloxacin-Susceptible P. aeruginosa; assay: In vitro antimicrobial susceptibility (MIC), Ciprofloxacin-Susceptible P. aeruginosa; assay type: cell-based; conditions: 14 isolates; for MIC Range: in µg/mL (unit assumed)
Protocol: as §1, §2

[3] = tested on: E. coli; assay: In vitro antimicrobial susceptibility (MIC), E. coli; assay type: cell-based; conditions: 10 isolates
Protocol: as §1, §2

[4] = tested on: Ciprofloxacin-Resistant S. aureus; assay: In vitro antimicrobial susceptibility (MIC), Ciprofloxacin-Resistant S. aureus; assay type: cell-based; conditions: 12 isolates; for MIC50 / MIC90: unit assumed; for MIC Range: in µg/mL (unit assumed)
Protocol: as §1, §2

[5] = tested on: Ciprofloxacin-Resistant P. aeruginosa; assay: In vitro antimicrobial susceptibility (MIC), Ciprofloxacin-Resistant P. aeruginosa; assay type: cell-based; conditions: 11 isolates; for MIC Range: in µg/mL (unit assumed)
Protocol: as §1, §2

[6] = Stability studies of finafloxacin formulations; assay type: physicochemical; conditions: aqueous solutions at pH between 5 and 6
Protocol: Exploratory stability studies were conducted to physical and chemical stability characteristics of formulations of the present invention.

[7] = Stability of finafloxacin free base polymorphs at high temperatures; assay type: physicochemical; conditions: temperatures such as those encountered during heat sterilization; compared with forms B and C
Description: A preferred form of finafloxacin for use in embodiments of the present invention is finafloxacin free base. At least three polymorphs of the finafloxacin free base have been identified (forms A, B, and C). […] The crystalline form of finafloxacin free base form A has an X-ray diffraction spectrum substantially the same as the X-ray powder diffraction spectrum shown in FIG. 1.

[8] = pH 5.8, in µg/mL (unit assumed)
[9] = pH 7.3, in µg/mL (unit assumed)

O=C(O)c1cn(C2CC2)c2cc(N3CCNCC3)c(F)cc2c1=O [Ciprofloxacin, ciprofloxacin]
MIC50 ([1]; pH 5.8): 1 µg/mL (≈ 3.02 µM) | MIC50 ([1]; pH 7.3): 0.25 µg/mL (≈ 0.754 µM) | MIC Range ([1]; pH 7.3): 0.125-1 | MIC50 ([2]; pH 5.8): 1 µg/mL (≈ 3.02 µM) | MIC90 ([2]; pH 5.8): 8 µg/mL (≈ 24.1 µM) | MIC Range ([2]; pH 5.8): 0.125-8 | MIC50 ([2]; pH 7.3): 0.5 µg/mL (≈ 1.51 µM) | MIC90 ([2]; pH 7.3): 2 µg/mL (≈ 6.04 µM) | MIC Range ([2]; pH 7.3): 0.063-2 | MIC50 ([3]; pH 5.8): 256 µg/mL (≈ 773 µM) | MIC90 [3, 8]: >1024 | MIC50 ([3]; pH 7.3): 16 µg/mL (≈ 48.3 µM) | MIC Range ([3]; pH 7.3): ≦0.008-128 | MIC90 [3, 9]: 128 | MIC50 ([4]; pH 5.8): 128 µg/mL (≈ 386 µM) | MIC90 ([4]; pH 5.8): > 256 µg/mL | MIC Range ([4]; pH 7.3): 4-128 | MIC50 ([4]; pH 7.3): 128 µg/mL (≈ 386 µM) | MIC90 ([4]; pH 7.3): 128 µg/mL (≈ 386 µM) | MIC50 ([5]; pH 5.8): 64 µg/mL (≈ 193 µM) | MIC90 ([5]; pH 5.8): > 512 µg/mL | MIC50 ([5]; pH 7.3): 16 µg/mL (≈ 48.3 µM) | MIC90 ([5]; pH 7.3): 512 µg/mL (≈ 1550 µM) | MIC Range ([5]; pH 7.3): 4-512

N#Cc1c(N2C[C@@H]3NCCO[C@H]3C2)c(F)cc2c(=O)c(C(=O)O)cn(C3CC3)c12 [Fina., 8-cyano-1-cyclopropyl-6-fluoro-7-[(4aS,7aS)-hexahydropyrrolo[3,4-b]-1,4-oxazin-6(2H)-yl]-1,4-dihydro-4-oxo-3-quinolinecarboxylic acid]
MIC50 ([1]; pH 5.8): 0.016 µg/mL (≈ 0.0402 µM) | MIC Range ([1]; pH 5.8): 0.008-0.125 | MIC50 ([1]; pH 7.3): 0.125 µg/mL (≈ 0.314 µM) | MIC Range ([1]; pH 7.3): 0.016-0.25 | MIC50 ([2]; pH 5.8): 1 µg/mL (≈ 2.51 µM) | MIC90 ([2]; pH 5.8): 4 µg/mL (≈ 10 µM) | MIC Range ([2]; pH 5.8): 0.25-4 | MIC50 ([2]; pH 7.3): 4 µg/mL (≈ 10 µM) | MIC90 ([2]; pH 7.3): 16 µg/mL (≈ 40.2 µM) | MIC Range ([2]; pH 7.3): 2-16 | precipitate formation in stability studies [6]: precipitates form | MIC50 ([3]; pH 5.8): 4 µg/mL (≈ 10 µM) | MIC90 [3, 8]: 8 | MIC Range [3, 8]: 0.0078-8 | MIC50 ([3]; pH 7.3): 32 µg/mL (≈ 80.3 µM) | MIC90 [3, 9]: 64 | MIC Range [3, 9]: 0.008-64 | MIC Range ([4]; pH 5.8): 0.5-8 | MIC50 ([4]; pH 5.8): 4 µg/mL (≈ 10 µM) | MIC90 ([4]; pH 5.8): 8 µg/mL (≈ 20.1 µM) | MIC Range ([4]; pH 7.3): 2-16 | MIC50 ([4]; pH 7.3): 16 µg/mL (≈ 40.2 µM) | MIC90 ([4]; pH 7.3): 16 µg/mL (≈ 40.2 µM) | MIC50 ([5]; pH 5.8): 16 µg/mL (≈ 40.2 µM) | MIC90 ([5]; pH 5.8): 512 µg/mL (≈ 1290 µM) | MIC Range ([5]; pH 5.8): 2-512 | MIC50 ([5]; pH 7.3): 512 µg/mL (≈ 1290 µM) | MIC90 ([5]; pH 7.3): > 512 µg/mL

CC1COc2c(N3CCN(C)CC3)c(F)cc3c(=O)c(C(=O)O)cn1c23 (stereo not drawn) [Ofloxacin, ofloxacin]
MIC50 ([1]; pH 5.8): 1 µg/mL (≈ 2.77 µM) | MIC Range ([1]; pH 5.8): 0.5-64 | MIC50 ([1]; pH 7.3): 0.25 µg/mL (≈ 0.692 µM) | MIC Range ([1]; pH 7.3): 0.125-0.5 | MIC50 ([2]; pH 5.8): 4 µg/mL (≈ 11.1 µM) | MIC90 ([2]; pH 5.8): 32 µg/mL (≈ 88.6 µM) | MIC Range ([2]; pH 5.8): 1-32 | MIC50 ([2]; pH 7.3): 2 µg/mL (≈ 5.53 µM) | MIC90 ([2]; pH 7.3): 4 µg/mL (≈ 11.1 µM) | MIC Range ([2]; pH 7.3): 1-4 | MIC50 ([3]; pH 5.8): 512 µg/mL (≈ 1420 µM) | MIC90 [3, 8]: 512 | MIC Range [3, 8]: 0.25-512 | MIC50 ([3]; pH 7.3): 16 µg/mL (≈ 44.3 µM) | MIC90 [3, 9]: 16 | MIC Range [3, 9]: 0.016-16 | MIC50 ([4]; pH 5.8): 64 µg/mL (≈ 177 µM) | MIC90 ([4]; pH 5.8): > 512 µg/mL | MIC Range ([4]; pH 7.3): 2-256 | MIC50 ([4]; pH 7.3): 32 µg/mL (≈ 88.6 µM) | MIC90 ([4]; pH 7.3): 256 µg/mL (≈ 708 µM) | MIC50 ([5]; pH 5.8): 256 µg/mL (≈ 708 µM) | MIC90 ([5]; pH 5.8): > 512 µg/mL | MIC50 ([5]; pH 7.3): 64 µg/mL (≈ 177 µM) | MIC90 ([5]; pH 7.3): > 512 µg/mL

N#Cc1c(N2C[C@@H]3NCCO[C@H]3C2)c(F)cc2c(=O)c(C(=O)O)cn(C3CC3)c12 [finafloxacin free base form A]
stability of polymorph at high temperatures [7]: most stable at high temperatures
